From US8207163B2, “Compositions, synthesis, and methods of using piperazine based antipsychotic agents” (Reviva Pharmaceuticals, Inc., priority 2008, dated 2012)
Counter-ions that a name gives are not always drawn.

Assays:
[1] = target: T1, serotonin 5-HT2A receptor (Human Cortex) (Homo sapiens, UniProt P28223); experiment: Serotonin, 5HT2A (human) radioligand binding assay, [3H]-Ketanserin; conditions: for IC50: six concentrations 0.5-1000 nM
T1 construct: Receptor Source: Human Cortex; from tissue; host or cells: human cortex
T1 sequence (P28223 whole entry): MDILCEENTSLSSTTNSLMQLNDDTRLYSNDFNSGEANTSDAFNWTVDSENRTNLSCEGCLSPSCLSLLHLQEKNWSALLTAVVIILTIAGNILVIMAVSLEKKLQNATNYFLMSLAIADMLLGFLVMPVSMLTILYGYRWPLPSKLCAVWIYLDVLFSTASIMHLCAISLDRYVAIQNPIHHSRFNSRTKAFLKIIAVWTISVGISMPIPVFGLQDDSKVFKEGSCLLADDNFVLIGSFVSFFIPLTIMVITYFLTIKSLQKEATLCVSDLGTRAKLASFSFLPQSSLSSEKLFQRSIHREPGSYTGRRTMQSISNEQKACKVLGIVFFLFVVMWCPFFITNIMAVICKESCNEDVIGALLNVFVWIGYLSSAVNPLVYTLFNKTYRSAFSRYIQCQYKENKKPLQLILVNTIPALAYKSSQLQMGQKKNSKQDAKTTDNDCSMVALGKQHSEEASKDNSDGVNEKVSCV
Protocol: (§1) The reactions were carried out in 50 mM TRIS-Hal (pH 7.4) containing 10 mM MgSO4, 0.5 mM EDTA and 0.1% Ascorbic acid at room temperature for 1 hour. The reaction was terminated by rapid vacuum filtration onto glass fiber filters. Radioactivity trapped onto the filters was determined and compared to control values in order to ascertain any interactions of test compounds with the cloned serotonin—5HT1A binding site (Literature Reference: Hoyer, D. et al. Eur. Journal Pharmacol. 1985, 118, 13-23; Schoeffier, P. and Hoyer, D. Naunyn-Schmiedeberg's Arch. Pharmac. 1989, 340, 135-138) • Serotonin, 5HT2A (human) binding assay: • Materials and Methods: • Receptor Source: Human Cortex • Radioligand: [^3H]-Ketanserin (60-90 Ci/mmol) • Control Compound: Ketanserin • Incubation Conditions:
The reactions were carried out in 50 mM TRIS-Hal (pH 7.6) at room temperature for 90 minutes. The reaction was terminated by rapid vacuum filtration onto glass fiber filters. Radioactivity trapped onto the filters was determined and compared to control values in order to ascertain any interactions of test compounds with the serotonin—5HT2A binding site (Literature Reference: Leysen, J. E. et al. Mol. Pharmacol. 1982, 21, 301-314; Martin, G. R. and Humphrey, P. P. A. Neuropharmacol. 1994, 33(3/4), 261-273.)
(§2) The radioligand binding assays for dopamine-D2S, serotonin-5HT1A and serotonin-5HT2A were carried out at six different concentrations and the test concentrations were 0.5 nM, 1 nM, 10 nm, 100 nM, 300 nM and 1000 nM.

[2] = target: T2, dopamine D2S receptor (human recombinant expressed in CHO cells) (Homo sapiens, UniProt P14416); experiment: Dopamine, D2S (human recombinant) radioligand binding assay, [3H]Spiperone; conditions: for IC50: six concentrations 0.5-1000 nM
T2 construct: expressed in transfected cells; host or cells: CHO cells
T2 sequence (P14416 1-414 isoform P14416-2): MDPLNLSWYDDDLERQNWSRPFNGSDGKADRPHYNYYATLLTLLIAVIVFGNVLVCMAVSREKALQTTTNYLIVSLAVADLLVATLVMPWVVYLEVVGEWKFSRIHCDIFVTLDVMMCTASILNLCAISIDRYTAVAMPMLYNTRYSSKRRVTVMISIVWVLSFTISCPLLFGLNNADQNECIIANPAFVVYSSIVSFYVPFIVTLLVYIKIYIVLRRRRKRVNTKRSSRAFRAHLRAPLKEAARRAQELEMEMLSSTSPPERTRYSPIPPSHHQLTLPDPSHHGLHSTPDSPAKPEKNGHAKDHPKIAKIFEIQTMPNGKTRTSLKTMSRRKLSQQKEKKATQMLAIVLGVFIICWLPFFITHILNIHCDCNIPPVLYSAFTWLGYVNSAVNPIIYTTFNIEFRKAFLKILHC
Protocol: The piperazine derivatives comprising Formulae (I)-(X) described in this invention were tested in the in vitro pharmacological assays to evaluate their activities for dopamine, D2S, serotonin, 5-HT1A and serotonin, 5-HT2A receptors. The in vitro assay protocols and literature references are described herein. • Dopamine, D2S (human recombinant) binding assay: • Materials and Methods: [table] The reactions were carried out in 50 mM TRIS-Hal (pH 7.4) containing 120 mM NaCl, 5 mM KCl, 5 mM MgCl2, 1 mM EDTA for 60 minutes at 25 C. The reaction was terminated by rapid vacuum filtration onto glass fiber filters. Radioactivity trapped onto the filters was determined and compared to control values in order to ascertain any interactions of test compounds with the cloned dopamine—D2 short binding site (Literature Reference: Jarvis, K. R. et al. Journal of Receptor Research 1993, 13(1-4), 573-590; Gundlach, A. L. et al. Life Sciences 1984, 35, 1981-1988.) • Serotonin, 5HT1A (human recombinant) binding assay: • Materials and Methods: The radioligand binding assays for dopamine-D2S, serotonin-5HT1A and serotonin-5HT2A were carried out at six different concentrations and the test concentrations were 0.5 nM, 1 nM, 10 nm, 100 nM, 300 nM and 1000 nM.

[3] = target: T3, serotonin 5-HT1A receptor (human recombinant expressed in HEK-293 cells) (Homo sapiens, UniProt P08908); experiment: Serotonin, 5HT1A (human recombinant) radioligand binding assay, [3H]-8-OH-DPAT; conditions: human recombinant in HEK-293 cells; for IC50: six concentrations 0.5-1000 nM
T3 construct: expressed in transfected cells; host or cells: HEK-293 cells (from the result head)
T3 sequence (P08908 1-422): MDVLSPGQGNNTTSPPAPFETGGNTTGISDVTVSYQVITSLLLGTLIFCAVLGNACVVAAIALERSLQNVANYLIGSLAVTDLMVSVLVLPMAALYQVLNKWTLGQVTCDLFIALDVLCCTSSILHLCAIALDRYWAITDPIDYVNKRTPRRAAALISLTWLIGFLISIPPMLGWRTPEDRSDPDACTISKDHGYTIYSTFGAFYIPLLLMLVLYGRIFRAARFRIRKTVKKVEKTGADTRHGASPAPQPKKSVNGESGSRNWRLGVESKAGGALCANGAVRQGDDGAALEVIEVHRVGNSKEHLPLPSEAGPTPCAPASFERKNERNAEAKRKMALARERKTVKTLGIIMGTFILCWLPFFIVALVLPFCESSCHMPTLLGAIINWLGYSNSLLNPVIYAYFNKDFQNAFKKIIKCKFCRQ
Protocol: as §1, §2

| Compound | Ki [1] [nM] | IC50 [1] [nM] | Ki [2] [nM] | IC50 [2] [nM] | Ki [3] [nM] | IC50 [3] [nM] |
| --- | --- | --- | --- | --- | --- | --- |
| O=C(CCCN1CCN(c2cccc(Cl)c2Cl)CC1)Nc1ccc2c(c1)NC(=O)CO2 [Compound 5b, 4-(4-(2,3-Dichlorophenyl)piperazin-1-yl)-N-(3-oxo-3,4-dihydro-2H-benzo[b][1,4]oxazin-6-yl)butanamide hydrochloride] | 57.4 | 110 | 2.89 | 7.89 | 11.4 | 18.5 |
| CCOC(=O)CCCOc1ccccc1N1CCN(CCCCOc2ccc3c(c2)NC(=O)CO3)CC1 [Compound 18a, Ethyl 4-(2-(4-(4-(3-oxo-3,4-dihydro-2H-benzo[b][1,4]oxazin-6-yloxy)butyl)piperazin-1-yl)phenoxy)butanoate hydrochloride] | 282 | 572 | 6.77 | 19.2 | 10.2 | 16.7 |
| CCOC(=O)C(C)(C)CCOc1ccccc1N1CCN(CCCCOc2ccc3c(c2)NC(=O)CO3)CC1 [Compound 18b, Ethyl 2,2-dimethyl-4-(2-(4-(4-(3-oxo-3,4-dihydro-2H-benzo[b][1,4]oxazin-6-yloxy)butyl)piperazin-1-yl)phenoxy)butanoate hydrochloride] | 340 | 622 | 50.2 | 147 | 3.3 | 5.44 |
| CCOC(=O)C(C)(C)Oc1ccccc1N1CCN(CCCCOc2ccc3c(c2)NC(=O)CO3)CC1 [Compound 18c, Ethyl 2-methyl-2-(2-(4-(4-(3-oxo-3,4-dihydro-2H-benzo[b][1,4]oxazin-6-yloxy)butyl)piperazin-1-yl)phenoxy)propanoate hydrochloride] | 185 | 376 | 2.09 | 5.93 | 2.67 | 4.41 |
| CCOC(=O)CN1C(=O)COc2ccc(OCCCCN3CCN(c4cccc(Cl)c4Cl)CC3)cc21 [Compound 28c, Ethyl 2-(6-(4-(4-(2,3-dichlorophenyl)piperazin-1-yl)butoxy)-3-oxo-2H-benzo[b][1,4]oxazin-4(3H)-yl)acetate hydrochloride] | 106 | 237 | 15.5 | 49.4 | 2.96 | 4.45 |
